Results as given in ChEMBL document CHEMBL1147608, “SAR development of polycyclic guanine derivatives targeted to the discovery of a selective PDE5 inhibitor for treatment of erectile dysfunction” (Bioorg Med Chem Lett, 2004).

Key:
[1] = target: T1, cGMP-specific 3',5'-cyclic phosphodiesterase (Homo sapiens, UniProt O76074); assay: Inhibition of human phosphodiesterase 5 at 100 nM
[2] = target: T1, cGMP-specific 3',5'-cyclic phosphodiesterase
[3] = target: Phosphodiesterase, PDE1/PDE5 (Homo sapiens) (UniProt O76074+P54750+Q01064+Q14123); assay: Realtive inhibition of PDE1 and PDE5; format: protein assay
[4] = target: Phosphodiesterase 2 and 5 (PDE2 and PDE5) (Homo sapiens) (UniProt O76074+O00408); assay: Relative inhibition of PDE2 and PDE5; format: protein assay
[5] = target: Phosphodiesterase 3 and 5 (PDE3 and PDE5) (Homo sapiens) (UniProt O76074+Q14432+Q13370); assay: Relative inhibition of PDE3 and PDE5; format: protein assay
[6] = target: Phosphodiesterase 4 and 5 (PDE4 and PDE5) (Homo sapiens) (UniProt O76074+P27815+Q08499+Q07343+Q08493); assay: Relative inhibition of PDE4 and PDE5; format: protein assay

Question: For CCN1C(=O)c2c(nc(Cc3ccccc3)n2Cc2cccc(Cl)c2)N2C1=N[C@@H]1CCC[C@@H]12, which inhibition [1] is on record?
Answer: 26%

Question: With CCSc1nc2c(n1Cc1ccc(O)cc1)C(=O)N(CC)C1=N[C@@H]3CCC[C@@H]3N12 as the molecule, how does the IC50 [2] read?
Answer: 1.8 nM

Question: With CCN1C(=O)c2c(ncn2Cc2ccc(O)c(Br)c2)N2C1=N[C@@H]1CCC[C@@H]12 as the molecule, how does the IC50 [2] read?
Answer: 6.3 nM

Question: How did the IC50 [2] turn out when CCN1C(=O)c2c(nc(OC)n2Cc2ccc(OC)c(C#N)c2)N2C[C@@H](Cc3ccccc3)N=C12 was run?
Answer: 11 nM

Question: And the Selectivity [3]?
Answer: 536

Question: And the Selectivity [4]?
Answer: 909

Question: And the Selectivity [5]?
Answer: 909

Question: And the Selectivity [6]?
Answer: 464

Question: How did the IC50 [2] turn out when CCN1C(=O)c2c(nc(C#Cc3ccccc3)n2Cc2ccc(O)cc2)N2C1=N[C@@H]1CCC[C@@H]12 was run?
Answer: 0.3 nM

Question: Which IC50 [2] does the source give for CCN1C(=O)c2c(nc(Cc3ccccc3)n2Cc2ccc(OC)cc2)N2C1=N[C@@H]1CCC[C@@H]12 here?
Answer: 20 nM

Question: For CCN1C(=O)c2c(nc(Cc3ccccc3)n2Cc2ccc3ccccc3c2)N2C1=N[C@@H]1CCC[C@@H]12, which inhibition [1] is on record?
Answer: 32%

Question: Which IC50 [2] does the source give for CCOc1nc2c(n1Cc1ccc(OC)cc1)C(=O)N(CC)C1=N[C@@H]3CCC[C@@H]3N12 here?
Answer: 18 nM

Question: CCN1C(=O)c2c(nc(C(F)(F)F)n2Cc2ccc(O)cc2)N2C1=N[C@@H]1CCC[C@@H]12 was tested. Which IC50 [2] did it give?
Answer: 7 nM

Question: Which results are given for CCN1C(=O)c2c(nc(C(N)=O)n2Cc2ccc(O)c(Cl)c2)N2C[C@@H](Cc3ccccc3)N=C12?
Answer: IC50 [2]: 3 nM; Selectivity [3]: 2600; Selectivity [4]: 3330; Selectivity [5]: 3330; Selectivity [6]: 1730

Question: Which IC50 [2] does the source give for CCN1C(=O)c2c(nc(C(N)=O)n2Cc2ccc(O)c(Cl)c2)N2C1=N[C@@H]1CCC[C@@H]12 here?
Answer: 1.1 nM

Question: With CCN1C(=O)c2c(nc(Cc3ccccc3)n2Cc2ccc(C)c(Cl)c2)N2C1=N[C@@H]1CCC[C@@H]12 as the molecule, how does the inhibition [1] read?
Answer: 27%

Question: How did the IC50 [2] turn out when CCN1C(=O)c2c(nc(C(F)(F)F)n2Cc2ccc(OC)cc2)N2C1=N[C@@H]1CCC[C@@H]12 was run?
Answer: 48 nM

Question: CCN1C(=O)c2c(nc(OC)n2Cc2ccc(O)c(Cl)c2)N2C1=N[C@@H]1CCC[C@@H]12 was tested. Which IC50 [2] did it give?
Answer: 2 nM

Question: For CCN1C(=O)c2[nH]c(Cc3ccccc3)nc2N2C1=N[C@@H]1CCC[C@@H]12, which IC50 [2] is on record?
Answer: 39 nM

Question: How did the IC50 [2] turn out when CCN1C(=O)c2c(nc(C(=O)OC)n2Cc2ccc(OC)cc2)N2C1=N[C@@H]1CCC[C@@H]12 was run?
Answer: 6.8 nM

Question: CCN1C(=O)c2c(nc(Cc3ccccc3)n2Cc2cccc(C)c2)N2C1=N[C@@H]1CCC[C@@H]12 was tested. Which inhibition [1] did it give?
Answer: 26%

Question: For CCN1C(=O)c2c(nc(C(N)=O)n2Cc2ccc(OC)c(Cl)c2)N2C[C@@H](Cc3ccccc3)N=C12, which IC50 [2] is on record?
Answer: 2.8 nM

Question: With CCN1C(=O)c2c(nc(Cc3ccccc3)n2Cc2cccc(OC)c2)N2C1=N[C@@H]1CCC[C@@H]12 as the molecule, how does the inhibition [1] read?
Answer: 14%

Question: With CCN1C(=O)c2c(nc(C(N)=O)n2Cc2ccc(OC)c(Br)c2)N2C1=N[C@@H]1CCC[C@@H]12 as the molecule, how does the IC50 [2] read?
Answer: 1.5 nM

Question: For CCOc1nc2c(n1Cc1ccc(O)c(Cl)c1)C(=O)N(CC)C1=N[C@@H]3CCC[C@@H]3N12, which IC50 [2] is on record?
Answer: 2.1 nM

Question: Which IC50 [2] does the source give for CCN1C(=O)c2c(nc(OC)n2Cc2ccc(O)c(C#N)c2)N2C[C@@H](Cc3ccccc3)N=C12 here?
Answer: 43 nM

Question: How did the IC50 [2] turn out when CCN1C(=O)c2c(nc(OC)n2Cc2ccc(OC)c(Cl)c2)N2C1=N[C@@H]1CCC[C@@H]12 was run?
Answer: 5 nM

Question: For CCN1C(=O)c2c(nc(C#Cc3ccccc3)n2Cc2ccc(OC)cc2)N2C1=N[C@@H]1CCC[C@@H]12, which IC50 [2] is on record?
Answer: 3.1 nM

Question: How did the inhibition [1] turn out when CCN1C(=O)c2c(nc(Cc3ccccc3)n2Cc2cccc(Br)c2)N2C1=N[C@@H]1CCC[C@@H]12 was run?
Answer: 33%

Question: How did the IC50 [2] turn out when CCN1C(=O)c2c(nc(C#N)n2Cc2ccc(OC)cc2)N2C1=N[C@@H]1CCC[C@@H]12 was run?
Answer: 6.3 nM

Question: CCN1C(=O)c2c(nc(C(N)=O)n2Cc2ccc(OC)cc2)N2C1=N[C@@H]1CCC[C@@H]12 was tested. Which IC50 [2] did it give?
Answer: 4 nM

Question: CCN1C(=O)c2c(ncn2Cc2ccc(OC)c(Br)c2)N2C1=N[C@@H]1CCC[C@@H]12 was tested. Which IC50 [2] did it give?
Answer: 6.5 nM

Question: CCN1C(=O)c2c(nc(Cc3ccccc3)n2Cc2ccc(N)cc2)N2C1=N[C@@H]1CCC[C@@H]12 was tested. Which IC50 [2] did it give?
Answer: 550 nM

Question: CCN1C(=O)c2c(nc(Cc3ccccc3)n2Cc2ccc(C)cc2)N2C1=N[C@@H]1CCC[C@@H]12 was tested. Which IC50 [2] did it give?
Answer: 40 nM

Question: With CCN1C(=O)c2c(nc(S(=O)(=O)CC)n2Cc2ccc(OC)cc2)N2C1=N[C@@H]1CCC[C@@H]12 as the molecule, how does the inhibition [1] read?
Answer: 31%

Question: For CCN1C(=O)c2c(nc(Cc3ccccc3)n2Cc2ccc3c(c2)OCO3)N2C1=N[C@@H]1CCC[C@@H]12, which IC50 [2] is on record?
Answer: 46 nM

Question: With CCOc1nc2c(n1Cc1ccc(OC)c(Cl)c1)C(=O)N(CC)C1=N[C@@H]3CCC[C@@H]3N12 as the molecule, how does the IC50 [2] read?
Answer: 6.5 nM

Question: CCN1C(=O)c2c(nc(C(N)=O)n2Cc2ccc(O)cc2)N2C1=N[C@@H]1CCC[C@@H]12 was tested. Which IC50 [2] did it give?
Answer: 2.1 nM

Question: With CCN1C(=O)c2c(nc(C#Cc3ccccc3)n2Cc2ccccc2)N2C1=N[C@@H]1CCC[C@@H]12 as the molecule, how does the IC50 [2] read?
Answer: 8 nM

Question: Which IC50 [2] does the source give for CCN1C(=O)c2c(ncn2Cc2ccc(OC)cc2)N2C1=N[C@@H]1CCC[C@@H]12 here?
Answer: 55 nM

Question: How did the IC50 [2] turn out when CCSc1nc2c(n1Cc1ccc(OC)cc1)C(=O)N(CC)C1=N[C@@H]3CCC[C@@H]3N12 was run?
Answer: 13 nM

Question: With CCN1C(=O)c2c(nc(Cc3ccccc3)n2Cc2ccc([N+](=O)[O-])cc2)N2C1=N[C@@H]1CCC[C@@H]12 as the molecule, how does the inhibition [1] read?
Answer: 8%

Question: Which inhibition [1] does the source give for CCN1C(=O)c2c(nc(Cc3ccccc3)n2Cc2ccccc2C)N2C1=N[C@@H]1CCC[C@@H]12 here?
Answer: 18%

Question: What does the source list for CCN1C(=O)c2c(nc(OCc3ccccc3)n2Cc2ccc(O)c(Cl)c2)N2C[C@@H](Cc3ccccc3)N=C12?
Answer: IC50 [2]: 2.1 nM; Selectivity [3]: 4760; Selectivity [4]: 4760; Selectivity [5]: 4760; Selectivity [6]: 2170

Question: CCN1C(=O)c2c(nc(C(=O)NC)n2Cc2ccc(O)c(Cl)c2)N2C1=N[C@@H]1CCC[C@@H]12 was tested. Which IC50 [2] did it give?
Answer: 1.3 nM

Question: Which IC50 [2] does the source give for CCN1C(=O)c2c(nc(Cc3ccccc3)n2Cc2ccccc2)N2C1=N[C@@H]1CCC[C@@H]12 here?
Answer: 130 nM

Question: CCOc1nc2c(n1Cc1ccc(O)cc1)C(=O)N(CC)C1=N[C@@H]3CCC[C@@H]3N12 was tested. Which IC50 [2] did it give?
Answer: 0.9 nM

Question: For CCN1C(=O)c2c(nc(OC)n2Cc2ccc(O)c(Br)c2)N2C[C@@H](Cc3ccccc3)N=C12, which IC50 [2] is on record?
Answer: 1.3 nM

Question: And the Selectivity [3]?
Answer: 7690

Question: And the Selectivity [4]?
Answer: 7690

Question: What about the Selectivity [5] of the same molecule?
Answer: 7690

Question: What about the Selectivity [6] of the same molecule?
Answer: 3770

Question: CCN1C(=O)c2c(nc(C(N)=O)n2Cc2ccc(O)c(Br)c2)N2C1=N[C@@H]1CCC[C@@H]12 was tested. Which IC50 [2] did it give?
Answer: 0.9 nM

Question: CCN1C(=O)c2c(nc(N(C)C)n2Cc2ccc(OC)cc2)N2C1=N[C@@H]1CCC[C@@H]12 was tested. Which inhibition [1] did it give?
Answer: 27%

Question: How did the IC50 [2] turn out when CCN1C(=O)c2c(nc(OC)n2Cc2ccc(O)c(Br)c2)N2C1=N[C@@H]1CCC[C@@H]12 was run?
Answer: 1.6 nM

Question: With CCN1C(=O)c2c(nc(C(=O)NC)n2Cc2ccc(OC)c(Cl)c2)N2C1=N[C@@H]1CCC[C@@H]12 as the molecule, how does the IC50 [2] read?
Answer: 2.3 nM

Question: With CCN1C(=O)c2c(nc(N)n2Cc2ccc(O)cc2)N2C1=N[C@@H]1CCC[C@@H]12 as the molecule, how does the IC50 [2] read?
Answer: 22 nM

Question: How did the IC50 [2] turn out when CCN1C(=O)c2c(nc(C#Cc3ccccc3)n2Cc2ccc(Cl)cc2)N2C1=N[C@@H]1CCC[C@@H]12 was run?
Answer: 5 nM

Question: For CCN1C(=O)c2c(nc(N=[N+]=[N-])n2Cc2ccc(O)cc2)N2C1=N[C@@H]1CCC[C@@H]12, which IC50 [2] is on record?
Answer: 0.61 nM

Question: Which IC50 [2] does the source give for CCN1C(=O)c2c(nc(OC)n2Cc2ccc(OC)c(Br)c2)N2C1=N[C@@H]1CCC[C@@H]12 here?
Answer: 2.8 nM

Question: How did the IC50 [2] turn out when CCN1C(=O)c2c(nc(Cc3ccccc3)n2Cc2ccc(Cl)cc2)N2C1=N[C@@H]1CCC[C@@H]12 was run?
Answer: 160 nM

Question: With CCN1C(=O)c2c(nc(OC)n2Cc2ccc(OC)c(Cl)c2)N2C[C@@H](Cc3ccccc3)N=C12 as the molecule, how does the IC50 [2] read?
Answer: 1.6 nM

Question: What about the Selectivity [3] of the same molecule?
Answer: 4380

Question: What about the Selectivity [4] of the same molecule?
Answer: 6250

Question: And the Selectivity [5]?
Answer: 6250

Question: What about the Selectivity [6] of the same molecule?
Answer: 394

Question: With CCN1C(=O)c2c(nc(OC)n2Cc2ccc(OC)c(Br)c2)N2C[C@@H](Cc3ccccc3)N=C12 as the molecule, how does the IC50 [2] read?
Answer: 2.2 nM

Question: And the Selectivity [3]?
Answer: 4090

Question: What about the Selectivity [4] of the same molecule?
Answer: 4540

Question: And the Selectivity [5]?
Answer: 4540

Question: And the Selectivity [6]?
Answer: 418

Question: With CCOc1nc2c(n1Cc1ccc(OC)c(Br)c1)C(=O)N(CC)C1=N[C@@H]3CCC[C@@H]3N12 as the molecule, how does the IC50 [2] read?
Answer: 5.4 nM

Question: For CCN1C(=O)c2c(nc(Cc3ccccc3)n2Cc2ccc(OC)c(Cl)c2)N2C1=N[C@@H]1CCC[C@@H]12, which IC50 [2] is on record?
Answer: 58 nM
